As usually defined, the pKi is −log10 of the Ki, conventionally taken in molar units.

The values that follow come from patent publication US7253165B2, “Benzisoxazolyl-, pyridoisoxazolyl-and benzthienyl-phenoxy derivatives useful as D4 antagonists” (Aventis Pharmaceuticals Inc., priority 1999, dated 2007).

pKi: −log10 of the molar value.

Test [1] has as its target T1, human D4 receptor (D4.2 sub-type) (Homo sapiens, UniProt P21917, DEL265-296).
T1 sequence (P21917 with tags, fused parts or gaps DEL265-296): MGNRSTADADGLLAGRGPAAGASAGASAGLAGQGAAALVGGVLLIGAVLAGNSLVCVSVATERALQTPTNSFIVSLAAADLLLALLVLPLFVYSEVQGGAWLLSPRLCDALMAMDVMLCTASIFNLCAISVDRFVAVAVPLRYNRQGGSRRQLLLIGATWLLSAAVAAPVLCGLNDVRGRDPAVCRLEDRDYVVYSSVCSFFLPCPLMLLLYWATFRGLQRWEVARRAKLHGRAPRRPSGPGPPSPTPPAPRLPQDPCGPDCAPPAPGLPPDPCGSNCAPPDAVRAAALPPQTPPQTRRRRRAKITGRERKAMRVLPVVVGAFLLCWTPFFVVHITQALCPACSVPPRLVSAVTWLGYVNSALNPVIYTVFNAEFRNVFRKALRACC
Description: D4 receptor binding assay, displacement of 3H-spiperone. As to conditions: 3H-spiperone 0.25 nM; for pKi: membranes of HEK cells transfected with human D4.2, * = HCl salt, read-out: D4 RBA Ki; for D4 RBA % Inhibition (@ 1 μM): 1 μM test compound. As for the experimental part: D4 receptor-binding affinities of the compounds were evaluated according to their ability to reduce binding of ^3H-spiperone as compared to the reference compound clozapine. The potency of the test compound to reduce ^3H-spiperone binding directly correlated to its binding affinity for the receptor.
[…] (human embryonic kidney) cells stably transfected with human D4 receptor (D4.2 sub-type) were grown in NUNC cell factories for 5 days (75% confluency) without a media change and removed with versene (approximately 19 mg of cells per cell factory tray). The cells were then centrifuged in a Sorval centrifuge for 10 min, 5000 rpm (GS3 rotor) and the pellets quickly frozen in liquid nitrogen and stored at −80° C. until used in binding assay. When used in the assay, cells were thawed on ice for 20 min and then 10 mL of incubation buffer (50 mM Tris, 1 mM EDTA, 4 mM MgCl2, 5 mM KCl, 1.5 mM CaCl2, 120 mM NaCl, pH 7.4) was added. The cells were then vortexed to resuspend pellet and homogenized with a Kinematica, CH-6010 Kriens-LU, homogenizer for 15 seconds at setting 7. Concentration of receptor protein was determined using the Pierce BCA assay.
The incubation was started by the addition of 100 μl (50 μg protein) membrane homogenate to a solution of 300 μl incubation buffer and 100 μl (0.25 nM final conc.) ^3H-spiperone (90 Ci/mmol, Amersham, diluted in borosilicate glass vial) in 96-well polypropylene plates (1 ML per well). The plates were vortexed and incubated at room temperature for 90 minutes. The binding reaction was stopped by filtering using a Packard Harvester. The samples were filtered under vacuum over glass fibre filter plates (Whatman GF/B) presoaked for 2 hours in 0.3% polyethylenimine (PEI) in 50 mM Tris buffer (pH 7.4). The filters were then washed 6 times with 7 mL ice cold 50 mM Tris buffer (pH 7.4). The filter plates were dried overnight and 35 μl of Microscint-O (Packard) was added. The plates were sealed and counted in the Packard Top Count (3 minutes per well).
The incubation was started by the addition of 100 μl (50 μg protein) membrane homogenate to a solution of 200 μl incubation buffer, 100 μl ^3H-spiperone (90 Ci/mmol, Amersham, diluted in borosilicate glass vial to 0.25 nM final conc.) and 100 μl (30 μM final conc.) of fresh dopamine (Research Biochemicals Inc., light protected and dissolved in incubation buffer) in 96-well polypropylene plates (1 mL per well). The plates were vortexed and incubated at room temperature for 90 minutes at which time the binding reaction was stopped by filtering. The filters were washed and counted using the same procedure as in the total binding assay described above to give the non-specific binding value (NSB).
The incubation was started by the addition, in 96-well polypropylene plates (1 mL per well), of 100 μl (50 μg protein) membrane homogenate to a solution of 200 μl incubation buffer, 100 μl (0.25 nM final-conc.) ^3H-spiperone (90 Ci/mmol, Amersham, diluted in borosilicate glass vial) and 100 μl of test compound that was prepared from 1 mM stock dissolved in DMSO and stored at −20° C. in polypropylene cryogenic storage vials until dilution in incubation buffer in 96-well polypropylene plates. The plates were vortexed and incubated at room temperature for 90 minutes at which time the binding reaction was stopped by filtering. The filters were washed and counted using the same procedure as in the total binding assay described above to give the displacement binding value (BD).
The test compounds were initially assayed at 1 and 0.1 μM and then at a range of concentrations chosen such that the middle dose would cause about 50% inhibition of ^3H-spiperone binding. Specific binding in the absence of test compound (B0) was the difference of total binding (BT) minus non-specific binding (NSB) and similarly specific binding (in the presence of test compound) (B) was the difference of displacement binding (BD) minus non-specific binding (NSB). […]
A general note: Displacement assays read how much labelled ligand stays bound in the presence of the test substance.

For test [2], the system named is MK-801 induced stereotypy (locomotion and falling behavior) in CD-1 or C57 male mice. As to the kind of experiment: MK-801 Stereotypy in Mice. As to conditions: In Vivo Method PO, MK-801 0.2 mg/kg; for inhibition in vivo at 20 mg/kg: Mus musculus, read-out: Antag. of MK 801 Stereotypy % Inhib. @ 20 mg/kg. The method, then:
Mk-801 dose-dependently induces characteristic stereotypy marked by locomotion and falling behavior. This MK-801 induced behavior can be antagonized by novel neuroleptic agents. This assay can also assess time course effects following drug administration.
CD-1 or C57 male mice are individually placed in activity boxes (8 mice/drug) and allowed to acclimate for 60 minutes. The mice are then administered test compounds either i.p., s.c., or p.o., at 15, 30, or 60 minutes prior to MK-801 (0.2 mg/kg) administration. Mice are observed for the presence of locomotion and falling behaviors 15 minutes following MK-801. For the duration of action studies the test compounds are administered i.p., s.c., or p.o., at 30, 60, 120, 180, and 240 minutes prior to MK-801 administration.

As to `CN(CCc1ccccc1)C[C@@H](O)COc1ccc(-c2noc3cc(F)ccc23)cc1` [Example 6], in test [1], the pKi is 7.38.

As to `O[C@@H](COc1ccc(-c2noc3cc(F)ccc23)cc1)CN1CCN(c2ccccn2)CC1` [Example 8], the pKi in test [1] was 8.05. The inhibition in vivo at 20 mg/kg in test [2] turned out to be 37.5%. Consider `CN(CCc1ccccc1)C[C@@H](O)COc1ccc(-c2noc3cc(F)ccc23)cc1` [Example 27, (R)-1-[4-(6-fluoro-benzo[d]isoxazol-3-yl)-phenoxy]-3-(methyl-phenethyl-amino)-propan-2-ol], for which the “D4 RBA % Inhibition (@ 1 μM)” value in test [1] amounted to 66%. The same measure, in the same setting: the result for `O[C@@H](COc1ccc(-c2noc3cc(F)ccc23)cc1)CN1CCN(c2ccccn2)CC1` [Example 29, (R)-1-[4-(6-fluoro-benzo[d]isoxazol-3-yl)-phenoxy]-3-(4-pyridin-2-yl-piperazin-1-yl)-propan-2-ol] reads 41%. Still for that read-out and setting: the value for `O[C@@H](COc1ccc(-c2noc3cc(F)ccc23)cc1)CN1CCC(c2noc3cc(F)ccc23)CC1` [Example 34, (R)-1-[4-(6-fluoro-benzo[d]isoxazol-3-yl)-phenoxy]-3-[4-(6-fluoro-benzo[d]isoxazol-3-yl)-piperidin-1-yl]-propan-2-ol] was 46%; that for `O[C@@H](COc1ccc(-c2noc3cc(F)ccc23)cc1)CN1CCC(O)(c2ccccc2)CC1` [Example 38, (R)-1-{3-[4-(6-fluoro-benzo[d]isoxazol-3-yl)-phenoxy]-2-hydroxy-propyl}-4-phenyl-piperidin-4-ol] was 54%. On to `O[C@@H](COc1cccc(-c2noc3cc(F)ccc23)c1)CN1CCN(c2ncccn2)CC1` [Example 69, (R)-1-[3-(6-fluoro-benzo[d]isoxazol-3-yl)-phenoxy]-3-(4-pyrimidin-2-yl-piperazin-1-yl)-propan-2-ol], for which, in test [1], the pKi is 7.85. Still for that read-out and setting: the result for `O[C@H](CNC1CCc2ccccc21)COc1ccc(-c2noc3cc(F)ccc23)cc1` (stereo partly drawn) [Example 72, (R)-1-[4-(6-fluoro-benzo[d]isoxazol-3-yl)-phenoxy]-3-(indan-1-ylamino)-propan-2-ol] reads 7.52. As to `O[C@H](CNCc1cccs1)COc1ccc(-c2noc3cc(F)ccc23)cc1` [Example 73, (R)-1-[4-(6-fluoro-benzo[d]isoxazol-3-yl)-phenoxy]-3-[(thiophen-2-ylmethyl)-amino]-propan-2-ol], the negative-log Ki (pKi) in test [1] is 7.89. Consider `COc1cccc(CNC[C@@H](O)COc2ccc(-c3noc4cc(F)ccc34)cc2)c1` [Example 80, (R)-1-[4-(6-fluoro-benzo[d]isoxazol-3-yl)-phenoxy]-3-(3-methoxy-benzylamino)-propan-2-ol], for which, in test [1], the “D4 RBA % Inhibition (@ 1 μM)” value came to 76%. For the molecule `O[C@H](CNC1Cc2ccccc2C1)COc1ccc(-c2noc3cc(F)ccc23)cc1` [Example 89, (R)-1-[4-(6-fluoro-benzo[d]isoxazol-3-yl)-phenoxy]-3-(indan-2-ylamino)-propan-2-ol], the pKi in test [1] was 8.89. Moreover, the “Antag. of MK 801 Stereotypy % Inhib. @ 20 mg/kg” value in test [2] stood at 25%. Regarding `O[C@@H](COc1ccc(-c2noc3cc(F)ccc23)cc1)CN1CCC(Oc2cccc(Cl)c2)CC1` [Example 90, (R)-1-[4-(3-chloro-phenoxy)-piperidin-1-yl]-3-[4-(6-fluoro-benzo[d]isoxazol-3-yl)-phenoxy]-propan-2-ol], the pKi in test [1] was 7.57.

As to `O[C@H](CNCc1ccc(F)cc1)COc1ccc(-c2csc3ccccc23)cc1` [Example 96, (R)-1-(4-benzo[b]thiophen-3-yl-phenoxy)-3-(4-fluoro-benzylamino)-propan-2-ol], the pKi in test [1] is 7.59. In the case of `O[C@@H](COc1cccc(-c2noc3ncccc23)c1)CN1CCC(Oc2cccc(Cl)c2)CC1` [Example 102, (R)-1-[4-(3-chloro-phenoxy)-piperidin-1-yl]-3-(3-isoxazolo[5,4-b]pyridin-3-yl-phenoxy)-propan-2-ol], the “D4 RBA % Inhibition (@ 1 μM)” value in test [1] is listed as 59%.

On to `O[C@@H](COc1cccc(-c2noc3ncccc23)c1)CN1CCN(c2ncccn2)CC1` [Example 106, (R)-1-(3-isoxazolo[5,4-b]pyridin-3-yl-phenoxy)-3-(4-pyrimidin-2-yl-piperazin-1-yl)-propan-2-ol], for which the pKi in test [1] was 8.08. Still for that read-out and setting: the value for `CCCC1CCN(CCOc2ccc(-c3noc4cc(F)ccc34)cc2)CC1` [Example 146] was 7.47; that for `Fc1ccc2c(-c3ccc(OCCN4CCC5(CC4)OCCO5)cc3)noc2c1` [Example 152] was 8.15.

For the molecule `CC1CCN(CCCOc2ccc(-c3noc4cc(F)ccc34)cc2)CC1` [Example 153], in test [1], the pKi is 8.42. In test [2], the inhibition in vivo at 20 mg/kg turned out to be 75%. The matching figures for `CCCC1CCN(CCCOc2ccc(-c3noc4cc(F)ccc34)cc2)CC1` [Example 154]: 7.95 and 25%. The matching figures for `Fc1ccc2c(-c3ccc(OCCCN4CCCCCC4)cc3)noc2c1` [Example 156]: 8.41 and 50%. The matching figures for `Fc1ccc2c(-c3ccc(OCCCN4CCCCCCC4)cc3)noc2c1` [Example 157]: 8.08 and 50%. For `Fc1ccc2c(-c3ccc(OCCCNCC4CCCCC4)cc3)noc2c1` [Example 158], in test [1], the pKi was 8.07. For the same molecule, in test [2], the inhibition in vivo at 20 mg/kg was 37.5%.
